This passage reports IC50 results from patent US11939344B2, “Spirocyclic compounds” (ASTRAZENECA AB, priority 2021, dated 2024).

SMILES strings stand for the structures.

Assay [1] has as its system HCT116 KO-MTAP cells. Nature of the assay: PRMT5 cell SDMA assay, MTAP KO cells. In kind it is cell-based. The following applies: Homo sapiens.
Assay [2] has as its system HCT116 WT cells. Put plainly: PRMT5 cell SDMA assay, MTAP WT cells. In kind it is cell-based. The following applies: Homo sapiens.
Assay [3] concerns HCT116 KO-MTAP cells. Nature of the assay: Cell proliferation assay (Alamar Blue), MTAP KO cells. It is filed as cell-based. The following applies: Homo sapiens. The method, then:
(§1) Cell Proliferation Assays:
(§2) A day 0 plate is created in parallel but not dosed, after plating 4 μl of Alamar Blue (Thermo #DAL1100) and incubate for 3 h at 37 C, 5% CO2.
(§3) The dosed cell plates were then incubated for 5 days at 37° C. before adding Alamar blue and being read in the Envision following same protocol as for first plate.

Assay [4] deals with HCT116 WT cells. Put plainly: Cell proliferation assay (Alamar Blue), MTAP WT cells. The following applies: Homo sapiens, HCT-116, 120 h, 5 days. In kind it is cell-based. The method, then: as §1, §2, §3
On the technique in general: Resazurin is reduced to fluorescent resorufin, in cell work by metabolically active cells.

Assay [5] has as its target human heterooctameric PRMT5:MEP50 enzyme complex (Homo sapiens, UniProt O14744). Nature of the assay: biochemical.
Protocol: MTase-GIlo™ PRMT5 Luminescence Assays (PRMT5 Enzyme Assays)
An Mtase-Glo™ methyltransferase Luminescence assay was employed to monitor the conversion of S-Adenosyl methionine (SAM) to S-Adenosyl Homocysteine (SAH) by recombinant PRMT5:MEP50 enzyme complex in the presence or absence of the 5′-Methylthioadenosine (MTA). […] The reaction buffer contained 20 mM Bicine (pH 7.60), 25 mM NaCl, 1 mM DTT and 0.1% (w/v) CHAPS.
All wells were backfilled with the appropriate volume of DMSO to achieve a final concentration of 1% v/v in a 3 μl final assay volume.
After 5 h incubation in room temperature, 1 μL of 0.5% (v/v) TFA was added to each well to quench the methylation reaction.
Data was analysed and the IC50 values were calculated using the Genedata Screener® software.
Setting [6] is: HCT-116, HCT116 MTAP KO, 48 hours, read-out: Cell SDMA IC50 (μM) (MTAP KO).
Where [7] appears, read: HCT-116, HCT116 MTAP WT, 48 hours, read-out: Cell SDMA IC50 (μM) (MTAP WT).
The mark [8] stands for this setting: HCT-116, 120 h, HCT116 MTAP KO, 5 days, read-out: Cell proliferation IC50 (μM) (MTAP KO).
Where [9] appears, read: HCT-116, column 6, read-out: Cell proliferation IC50 in MTAP KO cells.

Sequence of human heterooctameric PRMT5:MEP50 enzyme complex (O14744 whole entry): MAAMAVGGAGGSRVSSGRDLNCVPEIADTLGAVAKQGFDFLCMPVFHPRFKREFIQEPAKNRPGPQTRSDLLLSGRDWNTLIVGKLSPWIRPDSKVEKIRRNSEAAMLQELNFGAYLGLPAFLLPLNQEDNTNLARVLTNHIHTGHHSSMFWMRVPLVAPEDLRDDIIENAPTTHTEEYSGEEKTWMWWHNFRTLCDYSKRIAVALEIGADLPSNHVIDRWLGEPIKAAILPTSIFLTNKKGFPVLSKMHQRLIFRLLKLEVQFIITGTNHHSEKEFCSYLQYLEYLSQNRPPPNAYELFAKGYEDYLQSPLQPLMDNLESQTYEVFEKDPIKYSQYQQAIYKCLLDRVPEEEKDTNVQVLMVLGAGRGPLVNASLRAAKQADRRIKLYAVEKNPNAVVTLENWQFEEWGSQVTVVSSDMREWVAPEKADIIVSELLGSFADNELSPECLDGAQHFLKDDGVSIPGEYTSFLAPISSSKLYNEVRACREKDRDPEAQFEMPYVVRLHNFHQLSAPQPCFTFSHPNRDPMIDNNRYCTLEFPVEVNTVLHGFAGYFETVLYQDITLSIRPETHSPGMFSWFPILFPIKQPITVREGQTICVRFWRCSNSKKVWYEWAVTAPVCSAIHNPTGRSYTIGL
Sequence of human heterooctameric PRMT5:MEP50 enzyme complex (Q9BQA1 whole entry partner): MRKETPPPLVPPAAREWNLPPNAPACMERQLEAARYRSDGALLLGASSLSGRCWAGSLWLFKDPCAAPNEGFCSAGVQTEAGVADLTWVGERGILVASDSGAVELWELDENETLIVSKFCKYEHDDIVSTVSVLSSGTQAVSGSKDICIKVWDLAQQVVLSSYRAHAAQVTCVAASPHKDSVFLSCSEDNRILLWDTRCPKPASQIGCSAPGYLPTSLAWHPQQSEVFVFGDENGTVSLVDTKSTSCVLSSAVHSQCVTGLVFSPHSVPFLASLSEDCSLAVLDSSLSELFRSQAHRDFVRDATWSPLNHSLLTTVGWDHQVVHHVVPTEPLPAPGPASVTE

Turning to `CN1CC[C@@]2(C1=O)c1ccc(F)cc1C(=O)N2Cc1cc2nc(N)c(F)cc2[nH]1` [Example 10, (S)-2-((5-Amino-6-fluoro-1H-pyrrolo[3,2-b]pyridin-2-yl)methyl)-5-fluoro-1′-methylspiro[isoindoline-1,3′-pyrrolidine]-2′,3-dione], the IC50 was 0.023 µM in the assay on HCT116 KO-MTAP cells [1] (setting [6]), 1.7 µM in the assay with HCT116 WT cells [2] (setting [7]), 1.6 µM with HCT116 KO-MTAP cells [3] (setting [8]) and over 30 µM with HCT116 WT cells [4].
For `Nc1nc2cc(CN3C(=O)c4cc(F)ccc4[C@]34CCN(CCOC(F)(F)F)C4=O)[nH]c2cc1Cl` [Example 27, (S)-2-((5-Amino-6-chloro-1H-pyrrolo[3,2-b]pyridin-2-yl)methyl)-5-fluoro-1′-(2-(trifluoromethoxy)ethyl)spiro[isoindoline-1,3′-pyrrolidine]-2′,3-dione], in that order: 0.0047 µM, 0.17 µM, 0.36 µM and over 30 µM.
For `Nc1nc2cc(CN3C(=O)c4cc(F)ccc4[C@]34CCN(CC(F)F)C4=O)[nH]c2cc1F` [Example 8, (S)-2-((5-Amino-6-fluoro-1H-pyrrolo[3,2-b]pyridin-2-yl)methyl)-1′-(2,2-difluoroethyl)-5-fluorospiro[isoindoline-1,3′-pyrrolidine]-2′,3-dione], in that order: 0.025 µM, over 1.5 µM, 1.9 µM and over 30 µM.
Regarding `C#CCN1CC[C@@]2(C1=O)c1ccc(F)cc1C(=O)N2Cc1cc2nc(N)c(F)cc2[nH]1` [Example 3, (S)-2-((5-Amino-6-fluoro-1H-pyrrolo[3,2-b]pyridin-2-yl)methyl)-5-fluoro-1′-(prop-2-yn-1-yl)spiro[isoindoline-1,3′-pyrrolidine]-2′,3-dione], the IC50 with HCT116 KO-MTAP cells [1] (HCT-116, column 4, read-out: Cell SDMA IC50, MTAP knock out HCT116 cells) was 0.013 µM; in the assay on HCT116 KO-MTAP cells [1] (setting [6]), 0.013 µM; in the assay on HCT116 WT cells [2] (HCT-116, column 5, read-out: Cell SDMA IC50, HCT116 wild type cells) it was 0.56 µM; with HCT116 WT cells [2] (setting [7]), 0.56 µM; with HCT116 KO-MTAP cells [3] (setting [8]), 0.32 µM; with HCT116 KO-MTAP cells [3] (setting [9]), 0.32 µM. Besides, the IC50 was over 30 µM with HCT116 WT cells [4] and 61 nM in assay [5].
As for `Nc1nc2cc(CN3C(=O)c4cc(F)ccc4[C@]34CCN(Cc3ccc(F)cc3)C4=O)[nH]c2cc1F` [Example 1, (S)-2-((5-Amino-6-fluoro-1H-pyrrolo[3,2-b]pyridin-2-yl)methyl)-5-fluoro-1′-(4-fluorobenzyl)spiro[isoindoline-1,3′-pyrrolidine]-2′,3-dione], the IC50 came to 0.0053 µM with HCT116 KO-MTAP cells [1] (HCT-116, 48 h, read-out: Cell SDMA IC50 (μM) (MTAP KO)); 0.0053 µM in the assay on HCT116 KO-MTAP cells [1] (HCT-116, read-out: Cell SDMA IC50, MTAP knock out HCT116 cells); 0.29 µM in the assay with HCT116 WT cells [2] (HCT-116, 48 h, read-out: Cell SDMA IC50 (μM) (MTAP WT)); 0.29 µM with HCT116 WT cells [2] (HCT-116, read-out: Cell SDMA IC50, HCT116 wild type cells); 0.16 µM with HCT116 KO-MTAP cells [3] (setting [8]); 0.16 µM in the assay on HCT116 KO-MTAP cells [3] (setting [9]). Also, in the assay with HCT116 WT cells [4], the IC50 is over 30 µM.
